US20240199587A1, “HETEROCYCLIC COMPOUNDS” (Hoffmann-La Roche Inc., priority 2021, published 2024)

target: T1, MAGL (Homo sapiens, UniProt Q99685); test: 2-AG assay (MAGL inhibitory activity, hydrolysis of 2-arachidonoylglycerol to arachidonic acid followed by mass spectrometry); assay type: biochemical; details: 8 μM 2-arachidonoylglycerol, 15 min pre-incubation, 30 min incubation at RT, RapidFire MS readout
T1 sequence (Q99685 1-303): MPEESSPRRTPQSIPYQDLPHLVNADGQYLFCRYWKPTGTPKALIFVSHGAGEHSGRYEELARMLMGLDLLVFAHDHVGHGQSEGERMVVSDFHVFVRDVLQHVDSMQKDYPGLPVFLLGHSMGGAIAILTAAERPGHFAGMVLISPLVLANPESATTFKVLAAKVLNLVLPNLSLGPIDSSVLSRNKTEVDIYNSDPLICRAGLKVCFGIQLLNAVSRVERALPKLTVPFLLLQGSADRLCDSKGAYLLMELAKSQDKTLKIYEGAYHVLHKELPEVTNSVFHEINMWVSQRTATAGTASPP
Summary of the method: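 Human MAGL ([…] final) pre-incubated 15 min at RT with compound in 50 mM TRIS, 1 mM EDTA, 0.01% Tween-20, 2.5% DMSO; 8 μM 2-AG then added for 30 min at RT. Acetonitrile quench with d8-arachidonic acid; arachidonic acid measured by RapidFire SPE–MS/MS, activity from arachidonic acid/d8 ratio.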

**Q.** `O=C(N1CC2(CC(n3cnc(C4CC4)n3)C2)C1)N1CC2(C1)CN(S(=O)(=O)N1CCOCC1)C2` [Example 318, [6-(3-cyclopropyl-1,2,4-triazol-1-yl)-2-azaspiro[3.3]heptan-2-yl]-(2-morpholinosulfonyl-2,6-diazaspiro[3.3]heptan-6-yl)methanone] was tested. Which IC50 did it give?
**A.** The IC50 was 291 nM.

**Q.** How did the IC50 turn out when `O=C(N1CC(C23CC(Cc4nnc(C5CC5)[nH]4)(C2)C3)C1)N1CC2(CC(n3cnc(C4CC4)n3)C2)C1` [Example 384, [6-(3-cyclopropyl-1,2,4-triazol-1-yl)-2-azaspiro[3.3]heptan-2-yl]-[3-[3-[(5-cyclopropyl-4H-1,2,4-triazol-3-yl)methyl]-1-bicyclo[1.1.1]pentanyl]azetidin-1-yl]methanone] was run?
**A.** Its IC50 is 4.88 nM.

**Q.** With `N#Cc1cc(C2CN(C(=O)N3CC4(CC(n5cnc(C6CC6)n5)C4)C3)C2)ccc1OC(F)(F)F` [Example 39, 5-[1-[6-(3-cyclopropyl-1,2,4-triazol-1-yl)-2-azaspiro[3.3]heptane-2-carbonyl]azetidin-3-yl]-2-(trifluoromethoxy) benzonitrile] as the compound, how does the IC50 read?
**A.** Its IC50 is 2.4 nM.

**Q.** How did the IC50 turn out when `Cc1cnn(C2CC3(C2)CN(C(=O)c2cnc(OCC4(C(F)(F)F)CC4)c(C)c2)C3)c1` [Example 147, [6-(4-methylpyrazol-1-yl)-2-azaspiro[3.3]heptan-2-yl]-[5-methyl-6-[[1-(trifluoromethyl)cyclopropyl]methoxy]-3-pyridyl]methanone] was run?
**A.** The IC50 was 340 nM.

**Q.** `O=C(N1CC(c2ccc(-c3n[nH]c(C4CCC4)n3)cc2)C1)N1CC2(CC(n3cnc(C4CC4)n3)C2)C1` [Example 471, [3-[4-(5-cyclobutyl-1H-1,2,4-triazol-3-yl)phenyl]azetidin-1-yl]-[6-(3-cyclopropyl-1,2,4-triazol-1-yl)-2-azaspiro[3.3]heptan-2-yl]methanone] was tested. Which IC50 did it give?
**A.** Its IC50 is 0.69 nM.

**Q.** `CC(C)(C)c1nc(-c2ccc(C(=O)N3CC4(CC(n5cnc(C(F)(F)F)c5)C4)C3)cc2)no1` [Example 158, [4-(5-tert-butyl-1,2,4-oxadiazol-3-yl)phenyl]-[6-[4-(trifluoromethyl)imidazol-1-yl]-2-azaspiro[3.3]heptan-2-yl]methanone] was tested. Which IC50 did it give?
**A.** Its IC50 is 69.1 nM.

**Q.** How did the IC50 turn out when `O=C(N1CC(OCc2ccc(C(F)(F)F)c(F)c2)C1)N1CC2(CC(n3cnc(C4CC4)n3)C2)C1` [Example 74, (6-(3-cyclopropyl-1H-1,2,4-triazol-1-yl)-2-azaspiro[3.3]heptan-2-yl)(3-((3-fluoro-4-(trifluoromethyl)benzyl)oxy)azetidin-1-yl)methanone] was run?
**A.** The IC50 was 160 nM.

**Q.** For `CC(C)(C)c1nc(-c2ccc(C(=O)N3CC4(CC(n5ccc(C6(C)CC6)n5)C4)C3)cc2)no1` [Example 9, [4-(5-tert-butyl-1,2,4-oxadiazol-3-yl)phenyl]-[6-[3-(1-methylcyclopropyl)pyrazol-1-yl]-2-azaspiro[3.3]heptan-2-yl]methanone], which IC50 is on record?
**A.** Its IC50 is 613 nM.

**Q.** How did the IC50 turn out when `O=C(N1CC2(CC(n3cnc(C4CC4)n3)C2)C1)N1CC2(C1)CN(S(=O)(=O)CC(F)(F)F)C2` [Example 329, [6-(3-cyclopropyl-1,2,4-triazol-1-yl)-2-azaspiro[3.3]heptan-2-yl]-[2-(2,2,2-trifluoroethylsulfonyl)-2,6-diazaspiro[3.3]heptan-6-yl]methanone] was run?
**A.** The IC50 was 743 nM.

**Q.** `O=C(N1CC2(CC(n3cnc(C4CC4)n3)C2)C1)N1CC2(C1)CN(S(=O)(=O)c1ccc(F)cc1C(F)(F)F)C2` [Example 211, (6-(3-cyclopropyl-1H-1,2,4-triazol-1-yl)-2-azaspiro[3.3]heptan-2-yl)(6-((4-fluoro-2-(trifluoromethyl)phenyl)sulfonyl)-2,6-diazaspiro[3.3]heptan-2-yl)methanone] was tested. Which IC50 did it give?
**A.** The IC50 was 1.4 nM.

**Q.** Which IC50 does the source give for `CS(=N)(=O)c1ccc(CC2CC3(C2)CN(C(=O)N2CC4(CC(n5cnc(C(F)(F)F)n5)C4)C2)C3)cc1` (centres unmarked) [Example 430, [6-[[4-(methylsulfonimidoyl)phenyl]methyl]-2-azaspiro[3.3]heptan-2-yl]-[6-[3-(trifluoromethyl)-1,2,4-triazol-1-yl]-2-azaspiro[3.3]heptan-2-yl]methanone] here?
**A.** The IC50 was 17.2 nM.

**Q.** With `O=C(N1CC2(CC(n3cnc(C4CC4)n3)C2)C1)N1CC2(C1)CN(S(=O)(=O)NCc1ccc(F)cc1)C2` [Example 256, 6-[6-(3-cyclopropyl-1,2,4-triazol-1-yl)-2-azaspiro[3.3]heptane-2-carbonyl]-N-[(4-fluorophenyl)methyl]-2,6-diazaspiro[3.3]heptane-2-sulfonamide] as the compound, how does the IC50 read?
**A.** The IC50 was 17.3 nM.

**Q.** With `O=C(N1C[C@H]2C[C@H](Oc3ccc(C(F)(F)F)c(F)c3)C[C@H]2C1)N1CC2(CC(n3cnc(C4CC4)n3)C2)C1` [Example 117, [6-(3-cyclopropyl-1,2,4-triazol-1-yl)-2-azaspiro[3.3]heptan-2-yl]-[rac-(3aS,6aR)-5-[3-fluoro-4-(trifluoromethyl)phenoxy]-3,3a,4,5,6,6a-hexahydro-1H-cyclopenta[c]pyrrol-2-yl]methanone] as the compound, how does the IC50 read?
**A.** Its IC50 is 3.5 nM.

**Q.** For `Cc1cc(C(=O)N2CC3(CC(n4cnc(C5CC5)c4)C3)C2)cnc1OCC1(C)CC1` [Example 142, [6-(4-cyclopropylimidazol-1-yl)-2-azaspiro[3.3]heptan-2-yl]−[5-methyl-6-[(1-methylcyclopropyl)methoxy]-3-pyridyl]methanone], which IC50 is on record?
**A.** The IC50 was 31.3 nM.

**Q.** Which IC50 does the source give for `O=C(N1CC(C23CC(CNC4(C(F)(F)F)CC4)(C2)C3)C1)N1CC2(CC(n3cnc(C4CC4)n3)C2)C1` [Example 444, [6-(3-cyclopropyl-1,2,4-triazol-1-yl)-2-azaspiro[3.3]heptan-2-yl]-[3-[3-[[[1-(trifluoromethyl)cyclopropyl]amino]methyl]-1-bicyclo[1.1.1]pentanyl]azetidin-1-yl]methanone] here?
**A.** The IC50 was 0.05 nM.

**Q.** Which IC50 does the source give for `O=C(N1CC2(CC(n3cnc(C4(O)CC4)n3)C2)C1)N1CC2(CC[C@H](Cc3ncc(F)cc3F)C2)C1` (stereo in doubt) [Example 351, [6-[3-(1-hydroxycyclopropyl)-1,2,4-triazol-1-yl]-2-azaspiro[3.3]heptan-2-yl]-[(6S)-6-[(3,5-difluoro-2-pyridyl)methyl]-2-azaspiro[3.4]octan-2-yl]methanone] here?
**A.** The IC50 was 24.7 nM.

**Q.** Which IC50 does the source give for `O=C(N1CC2(CC(n3cnc(C4CC4)n3)C2)C1)N1CC2(C1)CN(S(=O)(=O)c1ccc(F)cc1Cl)C2` [Example 228, [2-(2-chloro-4-fluoro-phenyl)sulfonyl-2,6-diazaspiro[3.3]heptan-6-yl]-[6-(3-cyclopropyl-1,2,4-triazol-1-yl)-2-azaspiro[3.3]heptan-2-yl]methanone] here?
**A.** The IC50 was 4.2 nM.

**Q.** `NC(=O)C(c1ccc(F)cc1)C1CCN(C(=O)N2CC3(CC(n4cnc(C5CC5)n4)C3)C2)CC1` (centres unmarked) [Example 305, 2-[1-[6-(3-cyclopropyl-1,2,4-triazol-1-yl)-2-azaspiro[3.3]heptane-2-carbonyl]-4-piperidyl]-2-(4-fluorophenyl)acetamide] was tested. Which IC50 did it give?
**A.** Its IC50 is 117 nM.

**Q.** `O=C(O)c1ccccc1S(=O)(=O)N1CC2(CN(C(=O)N3CC4(CC(n5cnc(C6CC6)n5)C4)C3)C2)C1` [Example 338, 2-[[6-[6-(3-cyclopropyl-1,2,4-triazol-1-yl)-2-azaspiro[3.3]heptane-2-carbonyl]-2,6-diazaspiro[3.3]heptan-2-yl]sulfonyl]benzoic acid] was tested. Which IC50 did it give?
**A.** Its IC50 is 2150 nM.

**Q.** How did the IC50 turn out when `O=C(N1CC(Oc2cnc(Cl)c(C3CC3)c2)C1)N1CC2(CC(n3cnc(C4CC4)n3)C2)C1` [Example 254, [3-[(6-chloro-5-cyclopropyl-3-pyridyl)oxy]azetidin-1-yl]-[6-(3-cyclopropyl-1,2,4-triazol-1-yl)-2-azaspiro[3.3]heptan-2-yl]methanone] was run?
**A.** Its IC50 is 17 nM.
